Test results taken from paper PMC7749516, “Safety and nonclinical and clinical pharmacokinetics of PC945, a novel inhaled triazole antifungal agent” (Pharmacology Research & Perspectives, 2020).
Like-named read-outs stand apart in the source and are kept apart here.

Key:
[1] = cited from earlier work
[2] = system: CYP3A4/5; assay: CYP inhibition in pooled human liver microsomes; type: in vitro ADME; settings: without preincubation, pooled human liver microsomes

IC50 ([2]; probe midazolam, substrate midazolam) [nM]	IC50 ([2]; probe testosterone, substrate testosterone) [nM]	SMILES	Cmax ([1]; after 15‐day, 200 mg daily oral dosing) [nM]	Mean concentration in pulmonary alveolar cells relative to lung epithelial lining fluid and plasma ([1]; 14‐day oral 400 mg twice daily, steady state)	Cmax ([1]; after 200 mg three times daily oral dosing) [nM]
		CCC(C)n1ncn(-c2ccc(N3CCN(c4ccc(OCC5COC(Cn6cncn6)(c6ccc(Cl)cc6Cl)O5)cc4)CC3)cc2)c1=O (centres unmarked) [itraconazole]	1520		
320	81	CC[C@@H]([C@H](C)O)n1ncn(-c2ccc(N3CCN(c4ccc(OC[C@@H]5CO[C@@](Cn6cncn6)(c6ccc(F)cc6F)C5)cc4)CC3)cc2)c1=O [posaconazole, reference compound]		over 30 fold	830
